Measurements from PMC9646841, “A bead-based GPCR phosphorylation immunoassay for high-throughput ligand profiling and GRK inhibitor screening” (Communications Biology, 2022).
Several values for one entry are separate records, joined by “and”; a condition that tells them apart may be missing. Equal values may be shown once. Read-outs that look alike come from different tables or passages of the source. Square brackets hold non-standard residues; d marks the D form. Peptide text beside a SMILES is read from it. Cha = N[C@@H](CC1CCCCC1)C(=O)O; dCha = N[C@H](CC1CCCCC1)C(=O)O

Columns and labels:
C5a1 [1] = biological target: T1, C5a1 (Homo sapiens, UniProt P21730); experiment: pS338/pT339-C5a1 7TM phosphorylation assay; format: cell-based; conditions: for Emax: read-out: Emax (% Control C028) pS338/pT339-C5a1
T1 construct: host or cells: Control-HEK293, ΔGRK2/3-HEK293, ΔGRK5/6-HEK293, stably expressing
T1 sequence (P21730 1-350): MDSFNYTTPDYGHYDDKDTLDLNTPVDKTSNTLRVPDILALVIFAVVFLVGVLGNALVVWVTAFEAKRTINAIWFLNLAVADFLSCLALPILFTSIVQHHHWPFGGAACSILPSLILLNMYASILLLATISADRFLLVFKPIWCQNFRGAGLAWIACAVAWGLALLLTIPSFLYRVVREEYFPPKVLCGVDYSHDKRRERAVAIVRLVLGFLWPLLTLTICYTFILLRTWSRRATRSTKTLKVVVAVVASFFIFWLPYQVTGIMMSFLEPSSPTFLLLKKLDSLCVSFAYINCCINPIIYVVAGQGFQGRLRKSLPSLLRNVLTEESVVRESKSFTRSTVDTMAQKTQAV

C5a1 [2] = biological target: T1, C5a1; experiment: Total C5a1 loading control (np-C5a1 / anti-HA); format: cell-based
[3] = C028 10 µM, ΔGRK5/6-C5aR1-HEK293, concentration series
[4] = ΔGRK2/3-C5aR1-HEK293, C028 10 µM (concentration series)

For `N=C(N)NCCC[C@@H](NC(=O)[C@H](CC1CCCCC1)NC(=O)[C@@H](CC1CCCCC1)NC(=O)[C@@H]1CCCN1C(=O)[C@H](CCCCN)NC(=O)[C@@H](N)Cc1ccccc1)C(=O)O` [C028, FKP-(D-Cha)-Cha-r] (H-FKP[dCha][Cha][dR]-OH), the pS338/pS339 normalized (C5a1 [1]; [3]) was 60.81% and 85.60% and 54.29% and 47.10% and 52.27% and 73.34% and 65.73% and 72.42%, the “pS338/pS339 signal, raw” value (C5a1 [1]; [3]) was 0.6953 and 0.6053 and 0.6054 and 0.6811 and 0.925 and 0.7569 and 1.0104 and 1.1456 and the Emax (C5a1 [1]; Control-HEK293) was 100%. For the same molecule, the EC50 (C5a1 [1]; pEC50 pS338/pT339-C5a1, Control-HEK293) was 631 nM, the EC50 (C5a1 [1]; pEC50 pS338/pT339-C5a1, ΔGRK2/3-HEK293) was 1000 nM and the Emax (C5a1 [1]; ΔGRK2/3-HEK293) was 55.2%. The Emax (C5a1 [1]; ΔGRK5/6-HEK293) was 63.9%, the “np signal, raw” value (C5a1 [2]; C028 0.01 µM, Control-C5aR1-HEK293) was 1.7187 and 1.7849 and 1.2842 and 1.2491 and 1.8947 and the “np signal, raw” value (C5a1 [2]; C028 0.01 µM, ΔGRK2/3-C5aR1-HEK293) was 1.3719 and 1.658 and 1.494 and 1.3769 and 1.8182. The “np signal, raw” value (C5a1 [2]; C028 0.1 µM, Control-C5aR1-HEK293) was 1.8405 and 1.7894 and 1.13 and 1.0755 and 1.6047, the “np signal, raw” value (C5a1 [2]; C028 0.1 µM, ΔGRK2/3-C5aR1-HEK293) was 1.6138 and 1.8688 and 1.3994 and 1.4066 and 1.6881 and the “np signal, raw” value (C5a1 [2]; C028 0.1 µM, ΔGRK5/6-C5aR1-HEK293) was 1.983 and 1.7745 and 1.5114 and 1.8261 and 1.6189. The “np signal, raw” value (C5a1 [2]; C028 0.3 µM, ΔGRK5/6-C5aR1-HEK293) was 1.6298 and 1.4921 and 1.6333 and 1.6817 and 1.6758, the “np signal, raw” value (C5a1 [2]; C028 1 µM, ΔGRK2/3-C5aR1-HEK293) was 1.3996 and 1.4952 and 2.1996 and 1.4182 and 2.2245 and the “np signal, raw” value (C5a1 [2]; C028 1 µM, ΔGRK5/6-C5aR1-HEK293) was 1.9501 and 1.5997 and 1.4175 and 1.1243 and 1.5682. The “np signal, raw” value (C5a1 [2]; C028 3 µM, Control-C5aR1-HEK293) was 1.9121 and 1.6861 and 1.569 and 1.3939 and 2.1397, the “np signal, raw” value (C5a1 [2]; C028 3 µM, ΔGRK2/3-C5aR1-HEK293) was 1.5651 and 1.596 and 2.1319 and 1.2489 and 1.5422 and the “np signal, raw” value (C5a1 [2]; C028 3 µM, ΔGRK5/6-C5aR1-HEK293) was 1.6842 and 1.511 and 1.6612 and 1.9363 and 1.5067. The “np signal, raw” value (C5a1 [2]; C028 10 µM, Control-C5aR1-HEK293, concentration series) was 1.6592 and 1.6457 and 1.7245 and 1.2748 and 1.696, the “np signal, raw” value (C5a1 [2]; C028 10 µM, Control-C5aR1-HEK293, first 0/10 µM pair) was 1.6592 and 1.6457 and 1.3473 and 1.1686 and 1.879 and the “np signal, raw” value (C5a1 [2]; C028 10 µM, Control-C5aR1-HEK293, last 0/10 µM pair of Control block) was 1.9885 and 1.4944 and 1.4087 and 1.155 and 1.5321. The “np signal, raw” value (C5a1 [2]; C028 10 µM, Control-C5aR1-HEK293 beside ΔGRK2/3 block) was 2.0332 and 1.1801 and 1.5046 and 1.4934 and 1.6943, the “np signal, raw” value (C5a1 [2]; C028 10 µM, Control-C5aR1-HEK293 beside ΔGRK5/6 block) was 1.9038 and 2.0072 and 1.4662 and 1.7694 and 1.271 and the “np signal, raw” value (C5a1 [2]; C028 10 µM, ΔGRK2/3-C5aR1-HEK293, concentration series) was 1.5246 and 1.7106 and 1.3042 and 1.3389 and 1.7008. For the same molecule, the “np signal, raw” value (C5a1 [2]; C028 10 µM, ΔGRK2/3-C5aR1-HEK293, first 0/10 µM pair) was 1.2045 and 1.6486 and 1.422 and 1.3225 and 1.7342, the “np signal, raw” value (C5a1 [2]; [3]) was 2.2585 and 1.8872 and 1.4472 and 1.4134 and 1.6269 and the “np signal, raw” value (C5a1 [2]; C028 10 µM, ΔGRK5/6-C5aR1-HEK293, first 0/10 µM pair) was 2.1115 and 2.0551 and 1.5281 and 1.3721 and 1.3579. The “np (raw signal)” value (C5a1 [2]; Control-C5aR1-HEK293, C028 0.01 µM, concentration series) was 1.9803 and 1.5907 and 1.3538 and 1.2438 and 1.436 and 1.5903 and 1.7448 and 1.269, the “np (raw signal)” value (C5a1 [2]; Control-C5aR1-HEK293, C028 0.3 µM, concentration series) was 1.588 and 1.7265 and 1.5961 and 0.9789 and 1.4851 and 1.7215 and 1.957 and 1.5097 and the “np (total C5aR1), raw signal” value (C5a1 [2]; Control-C5aR1-HEK293, C028 0.01 µM) was 1.3949 and 1.3266 and 1.5751 and 1.603 and 1.9857 and 2.1902. The “np (total C5aR1), raw signal” value (C5a1 [2]; Control-C5aR1-HEK293, C028 0.1 µM) was 1.088 and 1.5141 and 1.6432 and 1.3119 and 2.129 and 1.8032, the “np (total C5aR1), raw signal” value (C5a1 [2]; Control-C5aR1-HEK293, C028 0.3 µM) was 1.3568 and 1.8238 and 1.5485 and 1.2855 and 1.9306 and 1.5751 and the “np (total C5aR1), raw signal” value (C5a1 [2]; Control-C5aR1-HEK293, C028 1 µM) was 1.4754 and 1.6232 and 1.785 and 1.3295 and 1.6944 and 2.063. For the same molecule, the “np (total C5aR1), raw signal” value (C5a1 [2]; Control-C5aR1-HEK293, C028 3 µM) was 1.2425 and 1.4862 and 1.9242 and 1.5919 and 2.0564 and 1.6025, the “np (total C5aR1), raw signal” value (C5a1 [2]; Control-C5aR1-HEK293 beside ΔGRK5/6 series, C028 10 µM) was 2.3386 and 2.3729 and 1.6554 and 1.7709 and 1.3577 and 1.3562 and 1.5255 and the “np (raw signal)” value (C5a1 [2]; Control-C5aR1-HEK293 run beside the ΔGRK2/3 block, C028 10 µM) was 1.8085 and 2.0631 and 1.4603 and 1.3915 and 1.4955 and 1.1807. For the same molecule, the “np (raw signal)” value (C5a1 [2]; Control-C5aR1-HEK293 run beside the ΔGRK5/6 block, C028 10 µM) was 1.9033 and 1.7695 and 1.3647 and 1.1555 and 2.1969 and 1.68 and 1.7195 and 1.5597, the “np (raw signal)” value (C5a1 [2]; ΔGRK2/3-C5aR1-HEK293, C028 0.01 µM, concentration series) was 1.9037 and 1.8736 and 1.6092 and 1.5411 and 1.8666 and 1.9049 and 1.8208 and 1.3708 and the “np (raw signal)” value (C5a1 [2]; ΔGRK2/3-C5aR1-HEK293, C028 0.1 µM, concentration series) was 1.8343 and 1.6381 and 1.9187 and 1.6055 and 2.1604 and 1.5161 and 1.9037 and 1.8736. For the same molecule, the “np (raw signal)” value (C5a1 [2]; ΔGRK2/3-C5aR1-HEK293, C028 0.3 µM, concentration series) was 1.6659 and 1.792 and 1.7372 and 1.7036 and 2.059 and 1.9288 and 1.8343 and 1.6381, the “np (raw signal)” value (C5a1 [2]; ΔGRK2/3-C5aR1-HEK293, C028 1 µM, concentration series) was 1.7539 and 1.6924 and 1.7772 and 1.4498 and 2.0307 and 1.5417 and 1.6659 and 1.792 and the “np (raw signal)” value (C5a1 [2]; ΔGRK2/3-C5aR1-HEK293, C028 3 µM, concentration series) was 1.6846 and 1.3473 and 1.4287 and 1.3661 and 2.0103 and 1.5757 and 1.7539 and 1.6924. For the same molecule, the “np (total C5aR1), raw signal” value (C5a1 [2]; ΔGRK2/3-C5aR1-HEK293, C028 0.01 µM) was 1.9989 and 2.1791 and 2.1472 and 1.695 and 1.8681 and 1.8947 and 1.79, the “np (total C5aR1), raw signal” value (C5a1 [2]; ΔGRK2/3-C5aR1-HEK293, C028 0.1 µM) was 2.1466 and 2.0776 and 2.1938 and 2.0797 and 1.633 and 1.3767 and 1.2578 and the “np (total C5aR1), raw signal” value (C5a1 [2]; ΔGRK2/3-C5aR1-HEK293, C028 0.3 µM) was 1.9738 and 1.8316 and 2.0611 and 2.0567 and 1.8444 and 1.4691 and 1.6375. The “np (total C5aR1), raw signal” value (C5a1 [2]; ΔGRK2/3-C5aR1-HEK293, C028 1 µM) was 1.8294 and 2.1206 and 2.1815 and 1.9867 and 1.4524 and 1.8069 and 1.3881, the “np (total C5aR1), raw signal” value (C5a1 [2]; ΔGRK2/3-C5aR1-HEK293, C028 3 µM) was 1.9342 and 1.5491 and 2.0615 and 1.8761 and 1.3783 and 1.8045 and 1.3094 and the “np (total C5aR1), raw signal” value (C5a1 [2]; ΔGRK2/3-C5aR1-HEK293, C028 10 µM (0/10 µM pair)) was 1.6776 and 1.597 and 2.0065 and 1.9839 and 1.7864 and 1.8111 and 1.5147. For the same molecule, the “np (raw signal)” value (C5a1 [2]; [4]) was 1.6617 and 1.8239 and 1.3136 and 1.3724 and 1.8559 and 1.6, the “np (total C5aR1), raw signal” value (C5a1 [2]; [4]) was 2.0002 and 1.769 and 2.052 and 2.2047 and 1.6138 and 1.7275 and 1.9566 and the “np (raw signal)” value (C5a1 [2]; ΔGRK5/6-C5aR1-HEK293, C028 0.3 µM, concentration series) was 1.7318 and 1.8541 and 1.5067 and 1.2715 and 1.8493 and 2.0046 and 1.7672 and 1.7676. The “np (raw signal)” value (C5a1 [2]; ΔGRK5/6-C5aR1-HEK293, C028 1 µM, concentration series) was 2.0252 and 1.7968 and 1.4934 and 1.2437 and 2.0647 and 1.7841 and 1.4601 and 1.5886, the “np (raw signal)” value (C5a1 [2]; ΔGRK5/6-C5aR1-HEK293, C028 10 µM, first 0/10 µM column pair) was 1.7829 and 1.9246 and 1.5744 and 1.3841 and 1.8642 and 1.9552 and 1.5996 and 1.6914 and the “np (total C5aR1), raw signal” value (C5a1 [2]; ΔGRK5/6-C5aR1-HEK293, C028 10 µM (0/10 µM pair)) was 1.7545 and 1.6551 and 1.4386 and 1.778 and 1.4304 and 1.6743 and 2.0075. The “np (total C5aR1), raw signal” value (C5a1 [2]; ΔGRK5/6-C5aR1-HEK293, C028 10 µM (concentration series)) was 1.8811 and 1.8348 and 1.6561 and 1.4006 and 1.0888 and 1.1737 and 1.1522.
